Measurements published in ChEMBL document CHEMBL3046115, “Modification and biological evaluation of novel 4-hydroxy-pyrone derivatives as non-peptidic HIV-1 protease inhibitors” (Med Chem Res, 2011).
Calls of active or inactive are those of the source. The calls are words filed in the database; no cut-off is given here.

What was measured:
[1] = target: Protease (Human immunodeficiency virus 1, UniProt Q9YQ12); experiment: Inhibition of Human immunodeficiency virus 1 protease using Lys-Ala-Arg-Val-Leu-Phe(NO2)-Glu-Ala-Met as substrate
[2] = system: Simian immunodeficiency virus; experiment: Antiviral activity against Simian immunodeficiency virus infected CEM174 cells assessed as inhibition of viral-induced syncytium formation after 5 days by microscopic analysis; format: functional, organism-based; details: CEM174, 120 h
[3] = Cytotoxicity against Homo sapiens (human) CEM174 cells; format: cell-based; details: read-out: TC50 (the source's name)
[4] = Therapeutic index, ratio of TC50 for human CEM174 cells to EC50 for SIV infected in human CEM174 cells; format: cell-based; details: CEM174 cells (uninfected for TC50, SIV-infected for EC50), read-out: TI
[5] = target: Protease (Human immunodeficiency virus 1) (UniProt Q9YQ12); experiment: Inhibition of Human immunodeficiency virus 1 protease expressed in human 293T cells cotransfected with pGAGPOL and pGAG assessed as Gagp24 protein expression after 48 hr by Western blot analysis; format: cell-based
Chain of Protease (Human immunodeficiency virus 1) (Q9YQ12 as listed by the source): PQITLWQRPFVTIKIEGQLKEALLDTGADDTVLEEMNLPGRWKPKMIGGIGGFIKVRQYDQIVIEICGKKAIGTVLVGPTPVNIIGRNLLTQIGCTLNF

Chain of Protease (Q9YQ12 whole entry): as the sequence (Q9YQ12 as listed by the source) above

Row | IC50 [1] [nM] | Compound | further results
1 | 1.1 | Cc1ccc(C(C)C)c(SC2=C(O)CC(CCc3ccccc3)(C(C)C)OC2=O)c1 (centres undefined) | EC50 [2]: 15000 nM
2 | 5 | O=C(O)CCCCC1(CCc2ccccc2)CC(O)=C(SCCc2ccccc2)C(=O)O1 (centres undefined) | 
3 |  | CC(C)(C)NC(=O)[C@@H]1CN(Cc2cccnc2)CCN1C[C@@H](O)C[C@@H](Cc1ccccc1)C(=O)N[C@H]1c2ccccc2C[C@H]1O | CC50 [3]: > 100000 nM; EC50 [2]: < 100 nM; selectivity ratio [4]: > 1000
4 | 126 | Cc1ccc(C)c(SC2=C(O)CC(COc3cccc4ccccc34)(c3ccccc3)OC2=O)c1 (racemic) | 
5 | 3.5 | CCOc1ccc(OCC)c(SC2=C(O)CC(COc3cccc4ccccc34)(c3ccccc3)OC2=O)c1 (racemic) | inhibition [5]: Active
6 | 128 | O=C1OC(COc2cccc3ccccc23)(c2ccccc2)CC(O)=C1SCc1ccccc1 (racemic) | 
7 | 126 | O=C1OC(COc2ccc3ccccc3c2)(c2ccccc2)CC(O)=C1Sc1ccccc1 (racemic) | 
8 | 61 | Cc1ccccc1SC1=C(O)CC(COc2ccc3ccccc3c2)(c2ccccc2)OC1=O (racemic) | 
9 | 22 | CCc1ccccc1SC1=C(O)CC(COc2ccc3ccccc3c2)(c2ccccc2)OC1=O (racemic) | 
10 | 89 | O=C1OC(COc2ccc3ccccc3c2)(c2ccccc2)CC(O)=C1Sc1ccccc1Cl (racemic) | 
11 | 65 | Cc1ccc(C)c(SC2=C(O)CC(COc3ccc4ccccc4c3)(c3ccccc3)OC2=O)c1 (racemic) | 
12 | 9.2 | CCOc1ccc(OCC)c(SC2=C(O)CC(COc3ccc4ccccc4c3)(c3ccccc3)OC2=O)c1 (racemic) | inhibition [5]: Active
13 | 73 | O=C1OC(COc2ccc3ccccc3c2)(c2ccccc2)CC(O)=C1SCc1ccccc1 (racemic) | 
14 | 258 | O=C1OC(CSc2ccccc2)(c2ccccc2)CC(O)=C1Sc1ccccc1 (racemic) | 
15 | 240 | Cc1ccccc1SC1=C(O)CC(CSc2ccccc2)(c2ccccc2)OC1=O (racemic) | 
16 | 238 | CCc1ccccc1SC1=C(O)CC(CSc2ccccc2)(c2ccccc2)OC1=O (racemic) | 
17 | 70 | O=C1OC(CSc2ccccc2)(c2ccccc2)CC(O)=C1Sc1ccccc1Cl (racemic) | 
18 | 196 | Cc1ccc(C)c(SC2=C(O)CC(CSc3ccccc3)(c3ccccc3)OC2=O)c1 (racemic) | 
19 | 24 | CCOc1ccc(OCC)c(SC2=C(O)CC(CSc3ccccc3)(c3ccccc3)OC2=O)c1 (racemic) | 
20 | 32 | O=C1OC(CSc2ccccc2)(c2ccccc2)CC(O)=C1SCc1ccccc1 (racemic) | 
21 | 159 | O=C1OC(COc2cccc3ccccc23)(c2ccccc2)CC(O)=C1Sc1ccccc1 (racemic) | 
22 | 64 | Cc1ccccc1SC1=C(O)CC(COc2cccc3ccccc23)(c2ccccc2)OC1=O (racemic) | 
23 | 100 | CCc1ccccc1SC1=C(O)CC(COc2cccc3ccccc23)(c2ccccc2)OC1=O (racemic) | 
24 | 59 | O=C1OC(COc2cccc3ccccc23)(c2ccccc2)CC(O)=C1Sc1ccccc1Cl (racemic) | 
